Laboratory results as given in patent publication US7109296B2, “Human 5-HT3-C protein” (Ortho-McNeil Pharmaceutical, Inc., priority 1999, dated 2006).

What was measured:
Format in all cases: cell-based
[1] = molecular target: T1, 5-HT3-C together with nicotinic ACh receptor a6 subunit (Homo sapiens, UniProt Q15825+Q8WXA8); test: Two-electrode voltage clamp, oocytes injected with 5-HT3-C together with nicotinic ACh receptor α6 subunit; settings: 10 μM; eight days after injection; 5-HT3-C 0.67 ng, a6 1 ng/oocyte
T1 construct: Characterization of the Function of Protein Encoded by p5HT3CR in Xenopus oocvtes; expressed in transfected cells; host or cells: Xenopus laevis oocytes injected with cRNA
T1 sequence (Q8WXA8 28-447): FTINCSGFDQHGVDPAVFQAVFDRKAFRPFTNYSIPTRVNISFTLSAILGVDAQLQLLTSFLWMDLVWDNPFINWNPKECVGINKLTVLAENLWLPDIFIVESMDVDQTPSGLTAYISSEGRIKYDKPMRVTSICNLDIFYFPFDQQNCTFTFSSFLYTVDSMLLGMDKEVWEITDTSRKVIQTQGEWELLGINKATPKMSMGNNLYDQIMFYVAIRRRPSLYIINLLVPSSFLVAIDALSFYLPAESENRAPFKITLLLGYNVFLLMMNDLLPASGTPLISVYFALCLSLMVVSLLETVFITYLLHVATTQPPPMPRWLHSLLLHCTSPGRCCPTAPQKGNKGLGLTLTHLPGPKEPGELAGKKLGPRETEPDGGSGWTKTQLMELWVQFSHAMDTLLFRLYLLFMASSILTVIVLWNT
T1 sequence (Q15825 26-494): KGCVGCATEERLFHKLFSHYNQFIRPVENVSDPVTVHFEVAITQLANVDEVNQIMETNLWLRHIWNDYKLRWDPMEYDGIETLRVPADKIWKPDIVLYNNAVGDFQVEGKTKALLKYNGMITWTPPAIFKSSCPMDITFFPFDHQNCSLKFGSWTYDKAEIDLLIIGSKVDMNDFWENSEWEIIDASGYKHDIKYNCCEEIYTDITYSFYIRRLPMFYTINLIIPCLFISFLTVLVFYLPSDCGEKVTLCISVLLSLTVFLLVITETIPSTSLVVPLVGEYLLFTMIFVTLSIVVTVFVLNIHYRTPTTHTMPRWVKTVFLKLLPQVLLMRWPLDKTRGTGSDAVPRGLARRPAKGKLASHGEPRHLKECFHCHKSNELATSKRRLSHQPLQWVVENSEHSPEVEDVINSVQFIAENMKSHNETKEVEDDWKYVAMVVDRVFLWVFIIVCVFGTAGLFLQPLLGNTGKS
Description: Characterization of the Function of Protein Encoded by p5HT3CR in Xenopus oocvtes Xenopus laevis oocytes were prepared and injected using standard methods previously described and known in the art (Fraser et al., 1993). Ovarian lobes from adult female Xenopus laevis (Nasco, Fort Atkinson, Wis.) were teased apart, rinsed several times in nominally Ca-free saline containing (in mM): NaCl 82.5, KCl 2.5, MgCl2 1, HEPES 5, adjusted to pH 7.0 with NaOH(OR-2), and gently shaken in OR-2 containing 0.2% collagenase Type 1 (ICN Biomedicals, Aurora, Ohio) for 2–5 hours. When approximately 50% of the follicular layers were removed, Stage V and VI oocytes were selected and rinsed in media consisting of 75% OR-2 and 25% ND-96. The ND-96 contained (in mM): NaCl 100, KCl 2, MgCl2 1, CaCl2 1.8, HEPES 5, Na pyruvate 2.5, gentamicin (50 ug/ml), adjusted to pH 7.0 with NaOH. […] For in vitro transcription, pGEM HE (Liman et al., 1992) containing human 5-HT3-A (Genbank D49394) or 5-HT3-C cDNA was linearized with NheI and transcribed with T7 RNA polymerase (Stratagene) in the presence of the cap analog m7G(5′)ppp(5′)G. The synthesized cRNA was purified with a Sephadex G-50 spin column. Oocytes were injected with 50 nl of the human serotonin 5-HT3-A receptor with or without the 5-HT3-C RNA (0.02 and 0.002–0.2 ng each) or other channel or receptor subunit. Control oocytes were injected with 50 nl of water. Oocytes were incubated for 2–14 days in ND-96 before analysis for expression of the human 5-HT3-C. Incubations and collagenase digestion were carried out at room temperature. Injected oocytes were maintained in 48 well cell culture clusters (Costar, Cambridge, Mass.) at 18° C. Whole cell agonist-induced currents were measured 1–14 days after injection with a conventional two-electrode voltage clamp (GeneClamp500, Axon Instruments, Foster City, Calif.) using standard methods previously described and known in the art (Dascal, 1987). The microelectrodes were filled with 3 M KCl, which had resistances of 1 and 2 MΩ. […]

5-HT3-A receptors = molecular target: T2, 5-HT3-A receptors (Homo sapiens, UniProt P46098); test: FLIPR DiBAC control, cells stably expressing 5-HT3-A receptors; settings: control for the DIBAC; increase in fluorescence
T2 sequence (P46098 24-478): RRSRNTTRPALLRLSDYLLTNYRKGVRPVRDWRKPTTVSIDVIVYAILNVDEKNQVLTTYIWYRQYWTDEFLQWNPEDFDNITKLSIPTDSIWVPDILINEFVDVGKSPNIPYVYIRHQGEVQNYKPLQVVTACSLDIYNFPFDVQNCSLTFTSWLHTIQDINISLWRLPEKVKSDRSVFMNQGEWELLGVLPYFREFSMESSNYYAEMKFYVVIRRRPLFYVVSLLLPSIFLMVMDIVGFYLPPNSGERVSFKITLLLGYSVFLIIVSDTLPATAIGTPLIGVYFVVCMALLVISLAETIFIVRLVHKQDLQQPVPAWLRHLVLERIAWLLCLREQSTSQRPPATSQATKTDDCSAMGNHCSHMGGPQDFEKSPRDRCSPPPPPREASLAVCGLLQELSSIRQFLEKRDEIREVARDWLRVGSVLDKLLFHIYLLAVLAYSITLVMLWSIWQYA

[2] = molecular target: T3, human 5-HT3-A(short) receptor (Homo sapiens, UniProt P46098); test: Two-electrode voltage clamp, oocytes expressing 5-HT3-A(short) homomeric receptors
T3 sequence (P46098 24-478): T2 sequence (P46098 24-478)

responsiveness of oocytes to agonist [1]: not responsive
DiBAC membrane potential response (5-HT3-A receptors): fast transient depolarization
peak currents to 5-HT ([2]; 5-HT3-A(short)-expressing oocytes, comparison for 2:1 ratio, n=19): −1.65+/−0.42 nA
Responses to 5-HT ([2]; 10 LM 5-HT, 5-HT3-A(short)-injected oocytes (0.33 ng), n=6): −3.89+/−0.76 nA
SMILES: NCCc1c[nH]c2ccc(O)cc12 [5-HT, 5-hydroxytryptamine]
